Data reported in patent publication US20050009820A1, “Thiochromenones used to combat painful conditions and neurodegenerative diseases” (priority 2001, published 2005).

Key:
[1] = biological target: T1, mGluR1 receptor (Homo sapiens, UniProt Q13255); assay: Determination of the activity on the mGluR1 receptor (luciferase luminescence in mGluR1 receptor-expressing CHO cells stimulated with 1 mM glutamate); format: cell-based; conditions: 1 mM glutamate with the test substance, 37° C., 4 h, luminescence readout
T1 construct: expressed in transfected cells; host or cells: CHO cells
Procedure: 1. Determination of the activity on the mGluR1 receptor
mGluR1 receptor-expressing CHO cells are seeded in 96-well plates (Greiner, Frickenhausen, Germany) (20 000 cells/well) and cultivated in ultra CHO medium (Bio-Whittaker, Walkersville, Md., 10% fetal calf serum) for one day. The substances to be tested are initially dissolved in a concentration of 10^−2 M in 100% DMSO and then diluted to the desired concentration with the culture medium. After being washed once with cell culture medium, the cells are incubated with 1 mM glutamate and simultaneously with the substance to be tested at 37° C. for 4 h. The medium is then aspirated off and the cells are lysed with 75 μl of Triton-luciferase buffer (1% Triton X 100, 10% glycerol, 2 mM DTT, 25 mM Na2HPO4, 25 mM TRIS), (530 μM ATP, 470 μM luciferin, 270 μM CoA, 20 mM tricine, 2.67 mM MgSO4, 33.3 mM DTT, 0.1 mM EDTA, pH 7.8). The luminescence is measured after one minute using a camera (Hamamatsu, Japan). Cells incubated only with glutamate show a marked increase in the luminescence compared with controls, while mGluR1 receptor antagonists reduce this concentration-dependently to below the initial luminscence.

T1 sequence (Q13255 19-1194): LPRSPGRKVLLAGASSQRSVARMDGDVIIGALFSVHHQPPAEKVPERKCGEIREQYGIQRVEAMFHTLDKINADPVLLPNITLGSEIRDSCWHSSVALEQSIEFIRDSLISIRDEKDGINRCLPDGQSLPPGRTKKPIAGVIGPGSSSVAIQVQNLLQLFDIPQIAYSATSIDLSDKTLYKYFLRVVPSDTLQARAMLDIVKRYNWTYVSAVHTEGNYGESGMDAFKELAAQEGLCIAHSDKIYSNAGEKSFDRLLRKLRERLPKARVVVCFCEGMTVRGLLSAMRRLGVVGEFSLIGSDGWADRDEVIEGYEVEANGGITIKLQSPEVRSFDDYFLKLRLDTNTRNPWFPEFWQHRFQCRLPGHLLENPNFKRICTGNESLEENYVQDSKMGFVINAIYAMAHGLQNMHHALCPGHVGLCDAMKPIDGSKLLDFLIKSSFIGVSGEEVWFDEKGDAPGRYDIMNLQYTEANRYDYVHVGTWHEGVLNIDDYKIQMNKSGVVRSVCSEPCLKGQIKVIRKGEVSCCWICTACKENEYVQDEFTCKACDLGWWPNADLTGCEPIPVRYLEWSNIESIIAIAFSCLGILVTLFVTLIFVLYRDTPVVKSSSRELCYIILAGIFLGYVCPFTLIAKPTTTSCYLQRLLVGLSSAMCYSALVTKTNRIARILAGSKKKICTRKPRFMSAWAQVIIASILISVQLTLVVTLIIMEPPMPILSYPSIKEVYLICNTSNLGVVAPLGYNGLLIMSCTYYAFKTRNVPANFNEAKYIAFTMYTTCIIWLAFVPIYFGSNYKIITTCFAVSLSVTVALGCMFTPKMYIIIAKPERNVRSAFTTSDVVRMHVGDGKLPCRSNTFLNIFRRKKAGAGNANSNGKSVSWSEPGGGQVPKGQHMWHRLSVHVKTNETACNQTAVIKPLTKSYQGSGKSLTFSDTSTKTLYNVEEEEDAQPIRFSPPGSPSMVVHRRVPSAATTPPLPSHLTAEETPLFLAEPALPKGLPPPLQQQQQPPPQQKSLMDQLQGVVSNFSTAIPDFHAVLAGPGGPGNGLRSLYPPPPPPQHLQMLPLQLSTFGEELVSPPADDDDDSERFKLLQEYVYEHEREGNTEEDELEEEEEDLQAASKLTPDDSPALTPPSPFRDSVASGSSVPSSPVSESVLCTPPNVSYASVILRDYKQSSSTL

IC50 [1] | melting point | Structure (SMILES)
– | 272 °C | CC1(C)CCc2c(sc3cc(NS(C)(=O)=O)ccc3c2=O)C1 [Example 2-11, N-(3,3-Dimethyl-9-oxo-2,3,4,9-tetrahydro-1H-thioxanthen-6-yl)methanesulfonamide]
– | 231 °C | CC1(C)CCc2c(sc3cc(NS(=O)(=O)c4ccccc4)ccc3c2=O)C1 [Example 2-12, N-(3,3-Dimethyl-9-oxo-2,3,4,9-tetrahydro-1H-thioxanthen-6-yl)benzenesulfonamide]
– | 279 °C | Cc1ccc(S(=O)(=O)Nc2ccc3c(=O)c4c(sc3c2)CC(C)(C)CC4)cc1 [Example 2-13, N-(3,3-Dimethyl-9-oxo-2,3,4,9-tetrahydro-1H-thioxanthen-6-yl)-4-methylbenzenesulfonamide]
– | 249 °C | CC1(C)CCc2c(sc3cc(OS(=O)(=O)Cc4ccccc4OC(F)(F)F)ccc3c2=O)C1 [Example 2-14, 3,3-Dimethyl-9-oxo-2,3,4,9-tetrahydro-1H-thioxanthen-6-yl [2-(trifluoromethoxy)-phenyl]methanesulfonate]
– | 263 °C | CC(C)S(=O)(=O)Nc1ccc2c(=O)c3c(sc2c1)CC(C)(C)CC3 [Example 2-15, N-(3,3-Dimethyl-9-oxo-2,3,4,9-tetrahydro-1H-thioxanthen-6-yl)isopropylsulfonamide]
– | 169 °C | CC1(C)CCc2c(sc3cc(-n4cccc4)ccc3c2=O)C1 [Example 2-24, 3,3-Dimethyl-6-(1H-pyrrol-1-yl)-1,2,3,4-tetrahydro-9H-thioxanthen-9-one]
– | 145 °C | CCC1CCc2c(sc3cc(-n4cccc4)ccc3c2=O)C1 (stereo not shown) [Example 2-25, 3-Ethyl-6-(1H-pyrrol-1-yl)-1,2,3,4-tetrahydro-9H-thioxanthen-9-one]
22 nM | – | CCC1CCc2c(sc3cc(N(C)CCOC)ccc3c2=O)C1 (stereo not shown) [Example 3-21, 3-Ethyl-6-[(2-methoxyethyl)(methyl)amino]-1,2,3,4-tetrahydro-9H-thio-xanthen-9-one]
13 nM | – | CCC1CCc2c(sc3cc(N4CCCCC4)ccc3c2=O)C1 (stereo not shown) [Example 3-22, 3-Ethyl-6-(1-piperidinyl)-1,2,3,4-tetrahydro-9H-thioxanthen-9-one]
28 nM | – | CCC1CCc2c(sc3cc(N4CCCCC4)c(F)cc3c2=O)C1 (stereo not shown) [Example 3-23, 3-Ethyl-7-fluoro-6-(1-piperidinyl)-1,2,3,4-tetrahydro-9H-thioxanthen-9-one]
35 nM | – | CCC(=O)Nc1ccc2c(=O)c3c(sc2c1)CC(CC)CC3 (stereo not shown) [Example 3-49, N-(3-Ethyl-9-oxo-2,3,4,9-tetrahydro-1H-thioxanthen-6-yl)propanamide]
35 nM | – | CCC1CCc2c(sc3cc(-c4cncnc4)ccc3c2=O)C1 (stereo not shown) [Example 3-55]
25 nM | – | CCC1CCc2c(sc3cc(N(C)S(=O)(=O)c4cccc(C#N)c4)ccc3c2=O)C1 (stereo not shown) [Example 4-8, 3-Cyano-N-(3-ethyl-9-oxo-2,3,4,9-tetrahydro-1-thioxanthen-6-yl)-N-methylbenzenesulfonamide]

More lines, now with the values behind:

Structure (SMILES) | IC50 [1] | melting point
CCC1CCc2c(sc3cc(-c4nnn[nH]4)ccc3c2=O)C1 (stereo not shown) [Example 1-3, 3-Ethyl-6-(1H-tetrazol-5-yl)-1,2,3,4-tetrahydro-9H-thioxanthen-9-one] | 9 nM | –
CCC1CCc2c(sc3cc(-c4cccs4)ccc3c2=O)C1 (stereo not shown) [Example 1-10, 3-Ethyl-6-(2-thienyl)-1,2,3,4-tetrahydro-9H-thioxanthen-9-one] | 97 nM | –
CC1(C)CCc2c(sc3cc(-c4cccc(C#N)c4)ccc3c2=O)C1 [Example 1-27, 3-(3,3-Dimethyl-9-oxo-2,3,4,9-tetrahydro-1H-thioxanthen-6-yl)benzonitrile] | 23 nM | –
CCC1CCc2c(sc3cc(-c4cccc(C#N)c4)ccc3c2=O)C1 (stereo not shown) [Example 1-29, 3-(3-Ethyl-9-oxo-2,3,4,9-tetrahydro-1H-thioxanthen-6-yl)benzonitrile] | 21 nM | –
CC1(C)CCc2c(sc3cc(-c4cccnc4)ccc3c2=O)C1 [Example 1-31, 3,3-Dimnethyl-6-(3-pyridinyl)-1,2,3,4-tetrahydro-9H-thioxanthen-9-one] | 31 nM | –
CCC1CCc2c(sc3cc(-c4noc(=O)[nH]4)ccc3c2=O)C1 (stereo not shown) [Example 1-34, 3-(3-Ethyl-9-oxo-2,3,4,9-tetrahydro-1H-thioxanthen-6-yl)-1,2,4-oxadiazol-5(4H)-one] | 81 nM | –
